# Key:
# kochia = test: Test A pre-/postemergence herbicide test; assay type: in vivo, Kochia scoparia
# Outline: (§1)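 Scoring was visual, relative to untreated controls, on a 0–100 scale after about 10 greenhouse days. Preemergence treatment used a directed soil spray over seeded loam/sand; postemergence treatment targeted one- to two-leaf plants of 2–10 cm.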
# galium = test: Test A postemergence herbicide test; assay type: in vivo, Galium aparine
# Outline: (§2)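 Blackgrass and galium grown in pots of loam soil–sand blend, treated postemergence at 2–10 cm height, one- to two-leaf stage. Plants kept in greenhouse ~10 days, then visually rated for injury against untreated controls on a 0–100 scale (0 no effect, 100 complete control).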
# ducksalad = test: Test B flooded paddy test; assay type: in vivo, Heteranthera limosa; settings: 500 g ai/ha, Flood; scale of 0 to 100 where 0 is no effect and 100 is complete control
# Outline: (§3)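 Treatment was made at the 2-leaf stage by dosing the standing floodwater, kept 3 cm above soil level for the whole test. Greenhouse exposure lasted 13 to 15 days. Response is a visual percent rating relative to controls, where a dash indicates no test result.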
# barnyardgrass [1] = test: Test A pre-/postemergence herbicide test; assay type: in vivo, Echinochloa crus-galli
# Outline: as §1
# rice = test: Test B flooded paddy test; assay type: in vivo, Oryza sativa; settings: 500 g ai/ha, Flood; scale of 0 to 100 where 0 is no effect and 100 is complete control
# Outline: as §3
# ragweed = test: Test A pre-/postemergence herbicide test; assay type: in vivo, Ambrosia elatior
# Outline: as §1
# ryegrass, Italian = test: Test A pre-/postemergence herbicide test; assay type: in vivo, Lolium multiflorum
# Outline: as §1
# sedge, umbrella = test: Test B flooded paddy test; assay type: in vivo, Cyperus difformis; settings: 500 g ai/ha, Flood; scale of 0 to 100 where 0 is no effect and 100 is complete control
# Outline: as §3
# corn = test: Test A pre-/postemergence herbicide test; assay type: in vivo, Zea mays; settings: Postemergence
# Outline: as §1
# barnyardgrass [2] = test: Test B flooded paddy test; assay type: in vivo, Echinochloa crus-galli; settings: 500 g ai/ha, Flood; scale of 0 to 100 where 0 is no effect and 100 is complete control
# Outline: as §3
# giant foxtail = test: Test A pre-/postemergence herbicide test; assay type: in vivo, Setaria faberii
# Outline: as §1
# wheat = test: Test A pre-/postemergence herbicide test; assay type: in vivo, Triticum aestivum; settings: Postemergence
# Outline: as §1
# pigweed = test: Test A pre-/postemergence herbicide test; assay type: in vivo, Amaranthus retroflexus
# Outline: as §1
# blackgrass = test: Test A postemergence herbicide test; assay type: in vivo, Alopecurus myosuroides
# Outline: as §2
# [3] = 125 g ai/ha, visual rating, 0 to 100 scale, 0 no effect, 100 complete control, approximately 10 days, preemergence
# [4] = Postemergence, 125 g ai/ha, 0 to 100 scale, 0 no effect, 100 complete control
# [5] = preemergence, 500 g ai/ha, 0 to 100 scale
# [6] = 125 g ai/ha, 0 to 100 scale, 0 no effect, 100 complete control
# [7] = Postemergence, 500 g ai/ha, 0 to 100 scale (0 no effect, 100 complete control)
# [8] = 500 g ai/ha, 0 to 100 scale (0 no effect, 100 complete control)
# [9] = Postemergence, 125 g ai/ha, visual rating on 0 to 100 scale (0 no effect, 100 complete control), approx. 10 days
# [10] = Preemergence, 125 g ai/ha, 0 to 100 scale where 0 is no effect and 100 is complete control
# [11] = preemergence, 500 g ai/ha, 0 to 100 scale, 0 is no effect and 100 is complete control
# [12] = 125 g ai/ha, visual rating on 0 to 100 scale (0 no effect, 100 complete control), approx. 10 days
smiles,measurement,setting,value
O=C1NCC(c2cccc(OC(F)(F)C(F)F)c2)C1C(=O)Nc1ccccc1Cl (racemic) [Compound 125],"Plant response rating, Kochia",kochia; [3],30
same,"Plant response rating, Kochia",kochia; [4],20
same,"Kochia plant response rating (0 to 100 scale, 0 is no effect, 100 is complete control)","kochia; Postemergence, 500 g ai/ha",60
same,"Plant response rating, Kochia",kochia; [5],70
same,"Plant response rating, Galium",galium; [6],0
same,"Galium plant response rating (0 to 100 scale, 0 is no effect, 100 is complete control)",galium; 500 g ai/ha,60
same,"Plant response rating, Ducksalad",ducksalad,85
same,"Plant response rating, Barnyardgrass",barnyardgrass [1]; [3],80
same,"Plant response rating, Barnyardgrass",barnyardgrass [1]; [4],60
same,"Plant response rating, Barnyardgrass",barnyardgrass [1]; [7],70
same,"Plant response rating, Barnyardgrass","barnyardgrass [1]; preemergence, 500 g ai/ha, 0 to 100 scale (0 no effect, 100 complete control)",90
same,"Plant response rating, Rice",rice,0
same,"Plant response rating, Ragweed",ragweed; [3],0
same,"Plant response rating, Ragweed",ragweed; [4],0
same,"Ragweed plant response rating (0 to 100 scale, 0 is no effect, 100 is complete control)","ragweed; Postemergence, 500 g ai/ha",0
same,"Plant response rating, Ragweed",ragweed; [5],0
same,"Plant response rating, Ryegrass, Italian","ryegrass, Italian; [3]",0
same,"Plant response rating, Ryegrass, Italian","ryegrass, Italian; [4]",0
same,"Ryegrass, Italian plant response rating (0 to 100 scale, 0 is no effect, 100 is complete control)","ryegrass, Italian; Postemergence, 500 g ai/ha",0
same,"Plant response rating, Ryegrass, Italian","ryegrass, Italian; [5]",20
same,"Plant response rating, Sedge, Umbrella","sedge, umbrella",0
same,"Plant response rating, Corn",corn; [6],0
same,"Plant response rating, Corn",corn; [8],0
same,"Plant response rating, Barnyardgrass",barnyardgrass [2],30
same,"Plant response rating, Foxtail, Giant",giant foxtail; [3],80
same,"Plant response rating, Foxtail, Giant",giant foxtail; [4],70
same,"Foxtail, Giant plant response rating (0 to 100 scale, 0 is no effect, 100 is complete control)","giant foxtail; Postemergence, 500 g ai/ha",80
same,"Plant response rating, Foxtail, Giant",giant foxtail; [5],90
same,"Plant response rating, Wheat",wheat; [6],0
same,"Wheat plant response rating (0 to 100 scale, 0 is no effect, 100 is complete control)",wheat; 500 g ai/ha,0
same,"Plant response rating, Pigweed",pigweed; [3],0
same,"Plant response rating, Pigweed",pigweed; [4],0
same,"Pigweed plant response rating (0 to 100 scale, 0 is no effect, 100 is complete control)","pigweed; Postemergence, 500 g ai/ha",20
same,"Plant response rating, Pigweed",pigweed; [5],0
same,"Plant response rating, Blackgrass",blackgrass; [6],20
same,"Plant response rating, Blackgrass",blackgrass; [8],50
O=C1NCC(c2cnn(CC(F)(F)F)c2)C1C(=O)Nc1ccccc1F (stereo not drawn) [Compound 298],"Plant response rating, Kochia",kochia; [9],0
same,"Plant response rating, Kochia",kochia; [7],0
same,"Plant response rating, Kochia",kochia; [10],0
same,"Plant response rating, Kochia",kochia; [11],0
same,"Plant response rating, Galium",galium; [12],0
same,"Plant response rating, Galium",galium; [8],0
same,"Plant response rating, Ducksalad",ducksalad,0
same,"Plant response rating, Barnyardgrass",barnyardgrass [1]; [9],0
same,"Plant response rating, Barnyardgrass",barnyardgrass [1]; [7],0
same,"Plant response rating, Barnyardgrass",barnyardgrass [1]; [10],0
same,"Plant response rating, Barnyardgrass",barnyardgrass [1]; [11],0
same,"Plant response rating, Rice",rice,0
same,"Plant response rating, Ragweed",ragweed; [9],0
same,"Plant response rating, Ragweed",ragweed; [7],0
same,"Plant response rating, Ragweed",ragweed; [10],0
same,"Plant response rating, Ragweed",ragweed; [11],0
same,"Plant response rating, Ryegrass, Italian","ryegrass, Italian; [9]",0
same,"Plant response rating, Ryegrass, Italian","ryegrass, Italian; [7]",0
same,"Plant response rating, Ryegrass, Italian","ryegrass, Italian; [10]",0
same,"Ryegrass, Italian plant response rating","ryegrass, Italian; Preemergence, 500 g ai/ha, visual rating on 0 to 100 scale (0 no effect, 100 complete control)",0
same,"Plant response rating, Sedge, Umbrella","sedge, umbrella",0
same,"Plant response rating, Corn",corn; [12],0
same,"Plant response rating, Corn",corn; [8],0
same,"Plant response rating, Barnyardgrass",barnyardgrass [2],0
same,"Plant response rating, Foxtail, Giant",giant foxtail; [9],0
same,"Plant response rating, Foxtail, Giant",giant foxtail; [7],0
same,"Plant response rating, Foxtail, Giant",giant foxtail; [10],0
same,"Plant response rating, Foxtail, Giant",giant foxtail; [11],0
same,"Plant response rating, Wheat",wheat; [12],0
same,"Plant response rating, Wheat",wheat; [8],0
same,"Plant response rating, Pigweed",pigweed; [9],0
same,"Plant response rating, Pigweed",pigweed; [7],0
same,"Plant response rating, Pigweed",pigweed; [10],0
same,"Plant response rating, Pigweed",pigweed; [11],0
same,"Plant response rating, Blackgrass",blackgrass; [12],0
same,"Plant response rating, Blackgrass",blackgrass; [8],0

# From patent US10294202B2, “Pyrrolidinones as herbicides” (FMC Corporation, priority 2013, dated 2019)
